Patent US8957083B2, “Spiro-amino-imidazolone and spiro-amino-dihydro-pyrimidinone compounds as beta-secretase modulators and methods of use” (Amgen Inc., priority 2010, dated 2015)
Like-named read-outs stand apart in the source and are kept apart here.

What was measured:
Aβ in lumbar CSF = settings: cited from earlier work
[1] = tested on: pigment epithelium of the rat's eye; settings: higher compound dose given for three months; cited from earlier work
Aβ = settings: orally available; cited from earlier work
[2] = biological target: BACE 1 (Beta Secretase enzyme) (Homo sapiens (Human), UniProt P56817); experiment: In vitro enzymatic BACE FRET assay; assay type: biochemical; settings: enzyme 0.2 nM, FRET substrate 50 nM, pH 4.2
Chain of BACE 1 (Beta Secretase enzyme) (P56817 46-501): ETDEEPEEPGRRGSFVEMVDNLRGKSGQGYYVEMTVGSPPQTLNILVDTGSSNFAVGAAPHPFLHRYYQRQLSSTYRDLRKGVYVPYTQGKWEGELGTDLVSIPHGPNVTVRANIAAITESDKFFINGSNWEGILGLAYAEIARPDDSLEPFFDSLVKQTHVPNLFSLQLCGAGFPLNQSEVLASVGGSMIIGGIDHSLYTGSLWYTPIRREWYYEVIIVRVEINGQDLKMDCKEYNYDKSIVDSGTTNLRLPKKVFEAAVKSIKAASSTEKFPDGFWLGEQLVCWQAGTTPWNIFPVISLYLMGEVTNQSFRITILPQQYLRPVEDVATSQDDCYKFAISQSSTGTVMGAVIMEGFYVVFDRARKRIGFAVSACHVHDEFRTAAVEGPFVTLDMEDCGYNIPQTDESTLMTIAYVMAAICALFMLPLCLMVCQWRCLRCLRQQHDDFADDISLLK
Method: In Vitro Enzymatic BACE FRET (Fluorescence Resonance Energy Transfer) Assay (Enzyme Assay Data in the Example Table I)
The assay buffer used in this screen is 0.05 M acetate, pH 4.2, 10% DMSO final, 100 uM genapol (which is a nonionic detergent, below its Critical Micelle Concentration). […] This assay is effectively started by the addition of FRET substrate (50 nM) and the combination is incubated for one hour. The FRET assay is terminated with by addition of Tris buffer, which raises the pH to neutrality, and the fluorescence is determined. The FRET substrate is a peptide with commercially available fluorophore and quencher, on opposite sides of the BACE cleavage site. Proteolytic cleavage of the FRET substrate releases quenching of fluorescence (excitation […] and […]).

[3] = tested on: Aβ40 in conditioned medium of cells expressing amyloid precursor protein; experiment: In vitro BACE cell-based assay (HEK cell assay), Aβ40 sandwich ELISA; settings: Homo sapiens, HEK293, 24 h, Aβ40 in supernatant after 24 h incubation
Method: In Vitro BACE Cell-Based Assay
The cell-based assay measures inhibition or reduction of Aβ40 in conditioned medium of test compound treated cells expressing amyloid precursor protein.
Cells stably expressing Amyloid Precursor Protein (APP) were plated at a density of 40K cells/well in 96 well plates (Costar). The cells were cultivated for 24 hours at 37° C. and 5% CO2 in DMEM supplemented with 10% FBS. The test compounds were then added to cells in 10-point dose response concentrations with the starting concentration being either 100 μM or 10 μM. The compounds were diluted from stock solutions in DMSO and the final DMSO concentration of the test compounds on cells was 0.1%. After 24 h of incubation with the test compounds the supernatant conditioned media was collected and the Aβ 40 levels were determined using a sandwich ELISA. The IC50 of the compound was calculated from the percent of control or percent inhibition of Aβ 40 as a function of the concentration of the test compound.
The sandwich ELISA to detect Aβ 40 was performed in 96 well microtiter plates, which were pre-treated with goat anti-rabbit IgG (Pierce). The capture and detecting antibody pair that were used to detect Aβ 40 from cell supernatants were affinity purified pAb40 (Biosource) and biotinylated 6E10 (Signet Labs Inc.), respectively. The optimal concentration for the pAb40 antibody was 3 μg/ml in Superblock/TBS (Pierce) that was supplemented with 0.05% Tween 20 (Sigma).
Cellular supernatants were incubated with the capture antibody for 3 h at 4° C., followed by 3 wash steps in TBS-tween (0.05%). The detecting antibody incubation was for 2 h at 4° C., again followed by the wash steps as described previously. The final readout of the ELISA is Time-Resolved Fluorescence (counts per minute) using Delfia reagents Streptavidin-Europium and Enhancement solutions (Perkin Elmer) and the Victor 2 multilabel counter (Perkin Elmer).

Cathepsin D (Cat D) = Cathepsin D (Cat D) (Homo sapiens (Human), UniProt P07339); experiment: In vitro enzymatic Cathepsin D (Cat D) FRET assay; assay type: biochemical; settings: Cat D enzyme 9 nM, FRET substrate 20 nM, pH 3.5
Chain of Cathepsin D (Cat D) (P07339 65-412, species assumed): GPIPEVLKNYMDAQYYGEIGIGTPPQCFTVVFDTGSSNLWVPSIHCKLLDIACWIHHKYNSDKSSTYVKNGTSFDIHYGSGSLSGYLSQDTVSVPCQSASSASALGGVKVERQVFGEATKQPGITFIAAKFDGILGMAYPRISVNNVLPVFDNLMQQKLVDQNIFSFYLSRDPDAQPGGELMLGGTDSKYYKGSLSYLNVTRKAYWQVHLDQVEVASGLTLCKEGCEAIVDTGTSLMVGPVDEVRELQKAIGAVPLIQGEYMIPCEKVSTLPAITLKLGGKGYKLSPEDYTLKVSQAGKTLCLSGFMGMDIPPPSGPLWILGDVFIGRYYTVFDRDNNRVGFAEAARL
Method: In Vitro Enzymatic Cathepsin D (Cat D) FRET (Fluorescence Resonance Energy Transfer) Assay
Recombinant Cat D was expressed in CHO cells. The assay buffer for CathepsinD is 0.05 M citrate pH 3.5, 10% DMSO final, 5 mM CHAPS. The Cat D enzyme (9 nM) is pre-incubated for one hour with inhibitors, typically in about luL of DMSO according to a serial dilution, is added thereto. The assays are effectively started by the addition of different FRET substrates (20 nM for Cat D) and the combination is incubated for one hour. The FRET assay is terminated with by addition of Tris buffer, which raises the pH to neutrality, and the fluorescence is determined. The FRET substrate is a peptide with commercially available fluorophore and quencher, on opposite sides of the BACE cleavage site. The Cat D substrate peptide sequence is based on sequence #1 of Table 1 from Gulnik et al. FEB S Letters v413 p 379-384 1997. Proteolytic cleavage of the FRET substrate releases quenching of fluorescence (Cat D excitation 500 nm and emission 580 nm).
Where available, the in-vitro Cat D FRET assay data for each of the Examples, conducted by the first procedure, is provided.

[4] = average IC50, read-out: BACE 1 FRET assay
[5] = average IC50, read-out: HEK cell assay

For `C[C@@]1(c2cc(-c3cncnc3)c(F)cc2F)CCSC(N)=N1` [LY2811376, (S)-4-(2,4-difluoro-5-pyrimidin-5-yl-phenyl)-4-methyl-5,6-dihydro-4H-[1,3]thiazin-2-ylamine], the “Aβ reductions in lumbar CSF” value (Aβ in lumbar CSF; after oral dosing of 30 or 90 mg) is given as “Prominent and long-lasting Aβ reductions”, the safety and tolerability (Aβ in lumbar CSF; healthy volunteers) is given as “safe and well tolerated” and the retinal toxicity finding [1] is given as “ravaged the pigment epithelium of the rat's eye”. For the same compound, the “Aβ-lowering effects in animals” value (Aβ) was “profound Aβ-lowering effects”.

Work on `COc1ccc2c(c1)C1(N=C(N)N(C)C1=O)c1cc(NC(=O)c3ccc(Cl)cn3)ccc1O2` (stereo not shown) [Example 40, N-(2-amino-2′-methoxy-1-methyl-5-oxo-1,5-dihydrospiro[imidazole-4,9′-xanthen]-7′-yl)-5-chloropicolinamide] yielded an IC50 [2, 4] of 6.7 nM, an IC50 [3, 5] of 39 nM and an IC50 (Cathepsin D (Cat D)) of 7400 nM.

For `CN1C(=O)C[C@]2(N=C1N)c1cc(-c3cccnc3F)ccc1Oc1c2cc(C2=CCOC(C)(C)C2)nc1F` [Example 27, (S)-2′-amino-3-(2,2-dimethyl-3,6-dihydro-2H-pyran-4-yl)-1-fluoro-7-(2-fluoropyridin-3-yl)-1′-methyl-1′H-spiro[chromeno[2,3-c]pyridine-5,4′-pyrimidin]-6′(5′H)-one], the IC50 [2, 4] was 0.7 nM and the IC50 [3, 5] was 5 nM.

With `CN1C(=O)C[C@]2(N=C1N)c1cc(-c3cccnc3F)ccc1Oc1cnc(C3=CCOCC3)cc12` [Example 22, (S)-2′-amino-3-(3,6-dihydro-2H-pyran-4-yl)-7-(2-fluoropyridin-3-yl)-1′-methyl-1′H-spiro[chromeno[2,3-c]pyridine-5,4′-pyrimidin]-6′(5′H)-one] the IC50 [2, 4] was 9.3 nM and the IC50 [3, 5] was 59.8 nM.

With `CN1C(=O)[C@]2(N=C1N)c1cc(C3=CCOCC3)ccc1Oc1ccc(-c3cccnc3F)cc12` (stereo in doubt) [Example 9, 2-amino-2′-(3,6-dihydro-2H-pyran-4-yl)-7′-(2-fluoropyridin-3-yl)-1-methylspiro[imidazole-4,9′-xanthen]-5(1H)-one] the IC50 [2, 4] was 0.9 nM and the IC50 [3, 5] was 3.6 nM.

Compound `CN1C(=O)C[C@]2(N=C1N)c1cc(-c3cccnc3F)ccc1Oc1c2cc(C2=CCCOC2)nc1F` [Example 17, (S)-2′-amino-3-(5,6-dihydro-2H-pyran-3-yl)-1-fluoro-7-(2-fluoropyridin-3-yl)-1′-methyl-1′H-spiro[chromeno[2,3-c]pyridine-5,4′-pyrimidin]-6′(5′H)-one] has an IC50 [2, 4] of 2.8 nM and an IC50 [3, 5] of 223 nM.

`CN1C(=O)C[C@]2(N=C1N)c1cc(-c3cccnc3F)ccc1Oc1c2cc(C2=CC(C)(C)OCC2)nc1F` [Example 26, (S)-2′-amino-3-(6,6-dimethyl-3,6-dihydro-2H-pyran-4-yl)-1-fluoro-7-(2-fluoropyridin-3-yl)-1′-methyl-1′H-spiro[chromeno[2,3-c]pyridine-5,4′-pyrimidin]-6′(5′H)-one] gave an IC50 [2, 4] of 0.6 nM and an IC50 [3, 5] of 5 nM.

With `CC#Cc1cncc(-c2ccc3c(c2)[C@]2(N=C(N)N(C)C2=O)c2cc(C4=CCOCC4)cc(F)c2O3)c1` (stereo in doubt) [Example 30, (4R)-2-amino-2′-(3,6-dihydro-2H-pyran-4-yl)-4′-fluoro-1-methyl-7′-(5-(1-propyn-1-yl)-3-pyridinyl)spiro[imidazole-4,9′-xanthen]-5(1H)-one, (4S)-2-amino-2′-(3,6-dihydro-2H-pyran-4-yl)-4′-fluoro-1-methyl-7′-(5-(1-propyn-1-yl)-3-pyridinyl)spiro[imidazole-4,9′-xanthen]-5(1H)-one] the IC50 [2, 4] was 0.9 nM and the IC50 [3, 5] was 13.7 nM.

In the case of `CN1C(=O)CC2(N=C1N)c1cc(Br)ccc1Oc1c2cc(Cl)nc1F` (stereo not shown) [Example 11, 2′-amino-7-bromo-3-chloro-1-fluoro-1′-methyl-1′H-spiro[chromeno[2,3-c]pyridine-5,4′-pyrimidin]-6′(5′H)-one], the IC50 ([2]; class symbols, read-out: BACE 1 FRET assay (IC50 class)) is reported as greater than 1000 nM and the IC50 ([3]; class symbols, read-out: HEK cell assay (IC50 class)) is reported as greater than 1000 nM.

Compound `Cc1ccc(-c2cc(F)c3c(c2)[C@@]2(N=C(N)N(C)C2=O)c2cc(-c4cccc(Cl)c4)ccc2O3)cc1` [Example 37, (4S)-2-amino-7′-(3-chlorophenyl)-4′-fluoro-1-methyl-2′-(4-methylphenyl)spiro[imidazole-4,9′-xanthen]-5(1H)-one] has an IC50 [2, 4] of 2.9 nM and an IC50 [3, 5] of 147 nM.

`CN1C(=O)C[C@@]2(N=C1N)c1cc(-c3cccnc3F)ccc1Oc1cnc(C3=CCOCC3)cc12` [Example 23, (R)-2′-amino-3-(3,6-dihydro-2H-pyran-4-yl)-7-(2-fluoropyridin-3-yl)-1′-methyl-1′H-spiro[chromeno[2,3-c]pyridine-5,4′-pyrimidin]-6′(5′H)-one] gave an IC50 [2, 4] of 1750 nM and an IC50 [3, 5] of 1680 nM.

`CN1C(=O)C[C@@]2(N=C1N)c1cc(-c3cccnc3F)ccc1Oc1c2cc(Cl)nc1F` [Example 14, (R)-2′-amino-3-chloro-1-fluoro-7-(2-fluoropyridin-3-yl)-1′-methyl-1′H-spiro[chromeno[2,3-c]pyridine-5,4′-pyrimidin]-6′(5′H)-one] gave an IC50 [2, 4] of 8210 nM and an IC50 [3, 5] of 361 nM.

For `COc1ccc2c(c1)[C@]1(N=C(N)N(C)C1=O)c1cc(-c3cncnc3)ccc1O2` (stereo in doubt) [Example 8, 2-amino-2′-methoxy-1-methyl-7′-(pyrimidin-5-yl)spiro[imidazole-4,9′-xanthen]-5(1H)-one], the IC50 [2, 4] was 13.4 nM and the IC50 [3, 5] was 108 nM.

Work on `CN1C(=O)CC2(N=C1N)c1cc(-c3cccnc3F)ccc1Oc1c2cc(-c2ccnc(F)c2)nc1F` (stereo not shown) [Example 18, 2′-amino-1-fluoro-7-(2-fluoropyridin-3-yl)-3-(2-fluoropyridin-4-yl)-1′-methyl-1′H-spiro[chromeno[2,3-c]pyridine-5,4′-pyrimidin]-6′(5′H)-one] yielded an IC50 [2, 4] of 2.4 nM and an IC50 [3, 5] of 71.6 nM.

Work on `CN1C(=O)C[C@]2(N=C1N)c1cc(-c3cccnc3F)ccc1Oc1c2cc(Cl)nc1F` [Example 15, (S)-2′-amino-3-chloro-1-fluoro-7-(2-fluoropyridin-3-yl)-1′-methyl-1′H-spiro[chromeno[2,3-c]pyridine-5,4′-pyrimidin]-6′(5′H)-one] yielded an IC50 [2, 4] of 33.2 nM and an IC50 [3, 5] of 643 nM.

With `CN1C(=O)C[C@]2(N=C1N)c1cc(-c3cccnc3F)ccc1Oc1c2cc(-c2ccnc(F)c2)nc1F` [Example 19, (S)-2′-amino-1-fluoro-7-(2-fluoropyridin-3-yl)-3-(2-fluoropyridin-4-yl)-1′-methyl-1′H-spiro[chromeno[2,3-c]pyridine-5,4′-pyrimidin]-6′(5′H)-one] the IC50 [2, 4] was 1.4 nM and the IC50 [3, 5] was 82 nM.

Compound `CN1C(=O)[C@@]2(N=C1N)c1cc(-c3cccc(Cl)c3)ccc1Oc1c(F)cc(C3=CCOCC3)cc12` [Example 35, (4R)-2-amino-7′-(3-chlorophenyl)-2′-(3,6-dihydro-2H-pyran-4-yl)-4′-fluoro-1-methylspiro[imidazole-4,9′-xanthen]-5(1H)-one] has an IC50 [2, 4] of 24.3 nM and an IC50 [3, 5] of 1820 nM.
